Assays:
HEK-293 cells [1] = test: Apoptosis assay: X-Gal staining of β-galactosidase co-transfected cells, apoptotic morphology; format: cell-based, human; conditions: HEK-293, HVJ-liposome method
HEK-293 cells [2] = test: as above; format: cell-based, human; conditions: for effect of oligonucleotide on prostacyclin-mediated apoptosis: HEK-293, HVJ-liposome method; for induction/enhancement of apoptosis by treatment with the agent: various concentrations (1, 10, 100 μM) in serum-free medium, cells expressing β-galactosidase and PGISwt or PGISC441A
Protocol: Cells were transfected with 1.0 μg of β-galactosidase expression vector using LipofectAMINE. After a fixed time, the cells were stained with X-Gal to evaluate the cells for apoptotic morphology. Apoptosis was monitored with ApoAlert caspase assay kit using Ac-DEVD-AFC substrate (Clontech). The activity was determined by using lysate pretreated with. Ac-DEVD-CHO as a control according to the supplier's instructions. The caspase activity is defined as a ratio between the caspase activity of a sample and that of lysate prepared from HEK-293 cells mock-transfected with a control plasmid.
To strictly ascertain the relationship between the expression of PGIS and apoptosis, HEK-293 cells were co-transfected with two types of expression constructs for human PGISwt and β-galactosidase. Because normal HEK-293 cells have flat morphology, it is easy to assess the cells for apoptotic changes characterized by membrane vesicle formation and cell body shrinkage. After incubation for a predetermined time following transfection, cells were stained with X-gal for β-galactosidase activity to identify cells containing the transgenes and then assessed for the apoptotic morphology. […] In HEK-293 cells, apoptosis was induced only by the expression of PGISwt without the presence of co-expression of COX-2 (FIGS. 4a and 5). The co-expression of COX-2 with PGISwt increased the number of apoptotic cells (16%). […] The level of 6-keto-PGF1α released into culture medium was correlated with the frequency of apoptosis (FIG. 6). […] Neither co-expression of PGISC441A and COX-2 nor further addition of arachidonic acid gave influence on the production 6-keto-PGF1α and morphological changes (FIGS. 5 and 6). These findings clearly indicate that prostacyclin produced by active PGIS participates in the process of apoptosis.

PPAR-δ = test: Immunoblot of PPAR-δ after oligonucleotide transfection (HVJ-liposome method); format: cell-based, human; conditions: after 48 hours
Source text: A lysate prepared from cells transfected with the PPAR-δ antisense oligonucleotide (AS) was immuno-blotted using an anti-PPAR-δ monoclonal antibody; a sense oligonucleotide (S) was used as a control.
dS, which corresponds to human PPAR-δ cDNA sense sequence: 5′-CTCGGTGACTTATCCTGTG-3′ (SEQ ID NO: 3); dAS, which corresponds to human PPAR-δ cDNA antisense sequence: 5′-TCCTCTTTCTCCTCCTCTT-3′ (SEQ ID NO: 4); aS, which corresponds to human PPAR-α cDNA sense sequence: 5′-CTCGGTGACTTATCCTGTG-3′ (SEQ ID NO: 5); and aAS, which corresponds to human PPAR-α cDNA antisense sequence: 5′-CACAGGATAAGTCACCGAG-3′ (SEQ ID NO: 6). These oligonucleotides were transfected into cells by HVJ-liposome method. Each oligonucleotide (22 μg) was combined with a nuclear protein and high mobility group (HMG)-1. HVJ-liposome was prepared by combining dry lipid (phosphatidyl serine/phosphatidyl choline/cholesterol (1:4.8:2 w/w/w)) with ultraviolet light-inactivated HVJ virus (viruses). After incubation and centrifugation with a sucrose-density gradient, the top layer was collected for transfection. 48 hours after transfection, cells in which the expression of endogenous PPAR-δ had been suppressed were used in PPREx3-luciferase assay and apoptosis assay.

PPAR = test: PPREx3-luciferase assay in HEK-293 cells; format: cell-based, human
Source text: The sense oligonucleotide […] CTC (SEQ ID NO: 7) and antisense oligonucleotide […] A (which contains three copies of PPRE; SEQ ID NO: 8) were synthesized and annealed together; the resulting double-stranded DNA was subcloned into PGL3-promoter vector (Promega) at the MluI-XhoI site. PPREx3-luciferase reporter vector and β-galactosidase expression vector were co-transfected into HEK-293 cells using LipofectAMINE. The activity of β-galactosidase was normalized with absorbance at 405 nm.

recombinant PPAR = conditions: added to medium; cited from earlier work
cAMP = test: Intracellular level of cAMP accumulated in transfected cells; format: cell-based, human; conditions: Iloprost at various concentrations, serum-free medium
Protocol: FIG. 8 illustrates a diagram showing the intracellular level of cAMP accumulated in cells in serum-free medium containing Iloprost at the concentrations indicated (0, 1, 10, or 100 μM). The cells were transfected with expression plasmids for PGISwt, PGISC441A, or a mock control expression plasmid and β-galactosidase expression plasmid. After 17 hours, the medium was changed with serum-free medium containing Iloprost at various concentrations (0, 1, 10, or 100 μm). All results were obtained from three sets of experiments (n=3) and are presented as mean±S.D.

HEK-293 cells [3] = test: Distribution of 3H-Iloprost in membrane, cytosol and nuclear fractions; format: in vitro ADME, human; conditions: 100 μM 3H-Iloprost, 24 hours
Protocol: FIG. 14 is a diagram showing the influence of the expression of PGIS on PPAR activation. The permeability of Iloprost was evaluated by using ^3H-Iloprost. HEK-293 cells were cultured in DMEM containing 100 μM ^3H-Iloprost for 24 hours. Cell membrane, cytosol, and nuclear fractions were prepared from the cells, and then the distribution of ^3H-Iloprost was determined using the fractions. The results were obtained from three sets of experiments (n=3) and are presented as mean±S.D.

HEK-293 cells [4] = test: Double-staining with anti-PGIS antibody and Hoechst 33258 (chromatin condensation); format: cell-based, human; conditions: 100 μM; HEK-293 cells expressing PGIS; data not shown
Protocol: Cultured monolayer cells of human fetal kidney-derived HEK-293 cell line (ATCC CRL-1573) were harvested and plated in Dulbecco's modified Eagle's medium containing 10% bovine fetal serum (FBS), 100 U/ml penicillin, and […] streptomycin (3×10^5 cells/60-mm dish). 24 hours after incubation, the cells were transfected with 3 μg of any one of PGISwt (described below), PGISC441A (described below), or control vector pCMV7 (generous gift from Texas University; Andersson, S. et al., J. Biol. Chem., 264, 8222-8229 (1989): this can be replaced with pcDNA3 (Invitrogen; catalogue number: #A-150228)) and […] of pvA (plasmid encoding adenovirus-associated RNA1) using LipofectAMINE (Gibco-BRL). 5 hours after transfection, the cells were rinsed twice with phosphate-buffered physiological saline (PBS), and the fresh medium was added thereto. After gene transfer, the cells were cultured for 48 to 60 hours in total. Then, the cells were rinsed with PBS, and fixed with 3.7% formaldehyde for 10 minutes. The cells fixed were washed three times with PBS, and then incubated with the anti-PGIS antibody P4 for 2 hours. After being washed three times with PBS containing 2% FBS, the cells were incubated with anti-rabbit Ig-Texas Red at 37° C. for 1 hour and stained with […] Hoechst 33258 at room temperature for 15 minutes.

In the case of “5′-CACAGGATAAGTCACCGAG-3′ (listed as DNA, chemistry not given here) [antisense oligonucleotide PPAR-α]”, the “changes in the oligonucleotide-treated cells (viability, morphology)” value (from here on “changes … (viability, morphology)”) (HEK-293 cells [1]) is reported as “cell viability declined” and the “effect of oligonucleotide on prostacyclin-mediated apoptosis” value (HEK-293 cells [2]) is reported as “apoptosis was not inhibited”.

With “5′-CTCGGTGACTTATCCTGTG-3′ (listed as DNA, chemistry not given here) [PPAR-α sense oligonucleotide]” the “changes … (viability, morphology)” value (HEK-293 cells [1]) was “no marked changes”.

For “5′-TCCTCTTTCTCCTCCTCTT-3′ (listed as DNA, chemistry not given here) [PPAR-δ antisense oligonucleotide]”, the “production of PPAR-δ protein” value (PPAR-δ) was “suppressed”, the “activity of luciferase co-expressed with PGISwt in oligonucleotide-treated cells” value (PPAR; HEK-293) was “significantly decreased” and the “changes … (viability, morphology)” value (HEK-293 cells [1]) was “normal morphology”. For the same compound, the “number of cells after oligonucleotide treatment” value (HEK-293 cells [1]) was “increased” and the “effect of oligonucleotide on prostacyclin-mediated apoptosis” value (HEK-293 cells [2]) was “significantly blocked”.

For `CC1CNCCN1S(=O)(=O)c1cccc2cnccc12` (centres unmarked) [H-7], the “effect on prostacyclin-mediated apoptosis” value (HEK-293 cells [2]; H-7 1, 10, 100 μM in serum-free medium, FIG. 10) was “did not block but enhanced”.

In the case of `CC#CCC(C)[C@H](O)/C=C/[C@@H]1[C@H]2C/C(=C/CCCC(=O)O)C[C@H]2C[C@H]1O` (some centres unmarked) [Iloprost], the “activation of recombinant PPAR overexpressed in CV-1 cells” value (recombinant PPAR) is listed as “results in activation”, the “activity of PPRE-luciferase on treatment” value (PPAR; 1 to 100 μM added to medium, endogenous PPAR) is listed as “could not increase” and the “intracellular cAMP” value (cAMP) is listed as “accumulated”. The “Iloprost taken up by HEK-293 cells” value (HEK-293 cells [3]) was “very little”, the “share of the Iloprost incorporated that is localized on cell membrane” value (HEK-293 cells [3]) was greater than 99% and the “induction/enhancement of apoptosis by treatment with the agent” value (HEK-293 cells [2]) was “apoptosis was not induced”.

For `CCCCC[C@H](O)/C=C/[C@@H]1[C@@H](C/C=C\CCCC(=O)O)[C@H]2CO[C@@H]1C2` [U46619], the “Hoechst 33258-positive cells” value (HEK-293 cells [4]) was 32%.

For `CCCCC/C=C\C/C=C\C/C=C\C/C=C\CCCC(=O)O` [arachidonic acid], the “apoptosis on addition to the medium” value (HEK-293 cells [2]; HEK-293 cells expressing both PGISwt and COX-2) was “induction of apoptosis in almost all the cells”.

For `CC(=O)Oc1ccccc1C(=O)O` [aspirin], the “Hoechst 33258-positive cells” value (HEK-293 cells [4]) was 48%.

With `CCCC(=O)Nc1ncnc2c1ncn2[C@@H]1O[C@@H]2COP(=O)(O)O[C@H]2[C@H]1OC(=O)CCC` [dbcAMP, dibutyryl-cAMP] the “induction/enhancement of apoptosis by treatment with the agent” value (HEK-293 cells [2]) was “apoptosis was not enhanced”.

For `CCCCC[C@H](O)/C=C/[C@@H]1[C@H]2C/C(=C/CCCC(=O)O)O[C@H]2C[C@H]1O` [prostacyclin], the “activation of recombinant PPAR overexpressed in CV-1 cells” value (recombinant PPAR) is given as “could not activate”.
